Source: patent US20130040882A1, “USE OF FIBROBLAST GROWTH FACTOR FRAGMENTS” (NOVARTIS AG, priority 2003, published 2013)

Tested on: uterine gene expression
Experiment: Gene expression profiling (HGU133A) in the uterus of ovariectomized monkeys treated with estradiol, tamoxifen or raloxifene
Type: in vivo, cynomolgus monkeys (Macaca fascicularis)
Settings: uterus; OVX monkeys

Compound: C#C[C@]1(O)CC[C@H]2[C@@H]3CCc4cc(O)ccc4[C@H]3CC[C@@]21C [EE]
- Fold change relative to OVX: ATPase, H+ transporting, lysosomal 38 kda, V0 subunit d isoform 1: 1.9 fold
- Fold change relative to OVX: ATPase, Na+/K+ transporting, beta 3 polypeptide: 2.2 fold
- Fold change relative to OVX: Biglycan: 1.9 fold
- Fold change relative to OVX: CDC28 protein kinase regulatory subunit 2: 3.8 fold
- Fold change relative to OVX: Cadherin 11, type 2, OB-cadherin (osteoblast): 3.4 fold
- Fold change relative to OVX: Calcium channel, voltage-dependent, beta 2 subunit: 0.6 fold
- Fold change relative to OVX: Catenin (cadherin-associated protein), alpha-like 1: 0.5 fold
- Fold change relative to OVX: Chitinase 3-like 1 (cartilage glycoprotein-39): 3.9 fold
- Fold change relative to OVX: Chloride intracellular channel 4: 1.7 fold
- Fold change relative to OVX: Chondroitin sulfate proteoglycan 2 (versican): 3.6 fold
- Fold change relative to OVX: Collagen, type I, alpha 1: 6.6 fold
- Fold change relative to OVX: Collagen, type IV, alpha 2: 3.3 fold
- Fold change relative to OVX: Collagen, type V, alpha 1: 4.0 fold
- Fold change relative to OVX: Collagen, type VI, alpha 3: 3.7 fold
- Fold change relative to OVX: Collagen, type VIII, alpha 2: 2.1 fold
- Fold change relative to OVX: Cyclin D1 (PRAD1: parathyroid adenomatosis 1): 2.4 fold
- Fold change relative to OVX: Cysteine-rich, angiogenic inducer, 61: 3.5 fold
- Fold change relative to OVX: Cytochrome c oxidase subunit via polypeptide 1: 1.5 fold
- Fold change relative to OVX: Cytochrome c oxidase subunit viia polypeptide 2 (liver): 1.8 fold
- Fold change relative to OVX: Dermatopontin: 1.9 fold
- Fold change relative to OVX: Dishevelled associated activator of morphogenesis 1: 3.1 fold
- Fold change relative to OVX: Fibroblast growth factor 2 (basic): 2.1 fold
- Fold change relative to OVX: Fibulin 1: 1.6 fold
- Fold change relative to OVX: Four and a half LIM domains 2: 3.0 fold
- Fold change relative to OVX: G1 to S phase transition 1: 1.6 fold
- Fold change relative to OVX: Growth associated protein 43: 2.0 fold
- Fold change relative to OVX: H2A histone family, member Y: 1.4 fold
- Fold change relative to OVX: Heparan sulfate proteoglycan 2 (perlecan): 3.5 fold
- Fold change relative to OVX: Histone H2A.F/Z variant: 1.4 fold
- Fold change relative to OVX: Insulin-like growth factor binding protein 2, 36 kda: 7.1 fold
- Fold change relative to OVX: Insulin-like growth factor binding protein 5: 5.2 fold
- Fold change relative to OVX: Integrin, beta 5: 1.7 fold
- Fold change relative to OVX: Intercrine-alpha, mrna sequence: 1.5 fold
- Fold change relative to OVX: LDL receptor adaptor protein: 0.6 fold
- Fold change relative to OVX: LIM and senescent cell antigen-like domains 1: 3.7 fold
- Fold change relative to OVX: Laminin, beta 1: 1.4 fold
- Fold change relative to OVX: Latent transforming growth factor beta binding protein 1: 3.6 fold
- Fold change relative to OVX: Matrix metalloproteinase 19: 6.3 fold
- Fold change relative to OVX: Mitogen-activated protein kinase kinase kinase kinase 4: 0.6 fold
- Fold change relative to OVX: Nidogen (enactin): 3.6 fold
- Fold change relative to OVX: Osteoglycin (osteoinductive factor, mimecan): 2.2 fold
- Fold change relative to OVX: Peroxiredoxin 1: 1.9 fold
- Fold change relative to OVX: Phosphatase and tensin homolog (mutated in multiple advanced cancers 1): 1.8 fold
- Fold change relative to OVX: Phospholipid transfer protein: 2.0 fold
- Fold change relative to OVX: Pituitary tumour-transforming 1 interacting protein: 1.8 fold
- Fold change relative to OVX: Procollagen C-endopeptidase enhancer: 3.2 fold
- Fold change relative to OVX: Procollagen-proline, 2-oxoglutarate 4-dioxygenase (proline 4-hydroxylase), alpha polypeptide II: 2.6 fold
- Fold change relative to OVX: Progesterone receptor: 9.7 fold
- Fold change relative to OVX: Protein tyrosine kinase 9: 2.1 fold
- Fold change relative to OVX: SET domain, bifurcated 1: 3.0 fold
- Fold change relative to OVX: SPARC-like 1 (mast9, hevin): 2.4 fold
- Fold change relative to OVX: Secreted frizzled-related protein 1: 7.1 fold
- Fold change relative to OVX: Secreted frizzled-related protein 4: 4.2 fold
- Fold change relative to OVX: Secreted protein, acidic, cysteine-rich (osteonectin): 2.9 fold
- Fold change relative to OVX: Serine (or cysteine) proteinase inhibitor, clade H (heat shock protein 47), member 1, (collagen binding protein 1): 3.3 fold
- Fold change relative to OVX: Solute carrier family 22 (organic cation transporter), member 1-like: 1.9 fold
- Fold change relative to OVX: Solute carrier family 25 (mitochondrial carrier; adenine nucleotide translocator), member 5: 2.5 fold
- Fold change relative to OVX: Stem cell growth factor; lymphocyte secreted C-type lectin: 2.2 fold
- Fold change relative to OVX: Tenascin C (hexabrachion): 1.2 fold
- Fold change relative to OVX: Testis Enhanced Gene Transcript (Bax Inhibitor 1): 1.8 fold
- Fold change relative to OVX: Thioredoxin interacting protein: 0.3 fold
- Fold change relative to OVX: Transforming growth factor, beta-induced, 68 kda: 1.7 fold
- Fold change relative to OVX: Ubiquinol-cytochrome c reductase, Rieske iron-sulfur polypeptide 1: 1.4 fold
- Fold change relative to OVX: Wingless-type MMTV integration site family, member 2B: 2.6 fold
- Fold change relative to OVX: Wingless-type MMTV integration site family, member 16: 1.1 fold
- Fold change relative to SHAM control: ATPase, H+ transporting, lysosomal 38 kda, V0 subunit d isoform 1: 1.6 fold
- Fold change relative to SHAM control: ATPase, Na+/K+ transporting, beta 3 polypeptide: 1.2 fold
- Fold change relative to SHAM control: Biglycan: 0.7 fold
- Fold change relative to SHAM control: CDC28 protein kinase regulatory subunit 2: 2.3 fold
- Fold change relative to SHAM control: Cadherin 11, type 2, OB-cadherin (osteoblast): 2.1 fold
- Fold change relative to SHAM control: Calcium channel, voltage-dependent, beta 2 subunit: 1.1 fold
- Fold change relative to SHAM control: Catenin (cadherin-associated protein), alpha-like 1: 1.0 fold
- Fold change relative to SHAM control: Chitinase 3-like 1 (cartilage glycoprotein-39): 2.8 fold
- Fold change relative to SHAM control: Chloride intracellular channel 4: 0.9 fold
- Fold change relative to SHAM control: Chondroitin sulfate proteoglycan 2 (versican): 2.6 fold
- Fold change relative to SHAM control: Collagen, type I, alpha 1: 2.4 fold
- Fold change relative to SHAM control: Collagen, type IV, alpha 2: 1.9 fold
- Fold change relative to SHAM control: Collagen, type V, alpha 1: 1.9 fold
- Fold change relative to SHAM control: Collagen, type VI, alpha 3: 2.1 fold
- Fold change relative to SHAM control: Collagen, type VIII, alpha 2: 1.2 fold
- Fold change relative to SHAM control: Cyclin D1 (PRAD1: parathyroid adenomatosis 1): 2.7 fold
- Fold change relative to SHAM control: Cysteine-rich, angiogenic inducer, 61: 2.0 fold
- Fold change relative to SHAM control: Cytochrome c oxidase subunit via polypeptide 1: 1.3 fold
- Fold change relative to SHAM control: Cytochrome c oxidase subunit viia polypeptide 2 (liver): 1.8 fold
- Fold change relative to SHAM control: Dermatopontin: 1.1 fold
- Fold change relative to SHAM control: Dishevelled associated activator of morphogenesis 1: 2.0 fold
- Fold change relative to SHAM control: Fibroblast growth factor 2 (basic): 1.1 fold
- Fold change relative to SHAM control: Fibulin 1: 0.9 fold
- Fold change relative to SHAM control: Four and a half LIM domains 2: 1.9 fold
- Fold change relative to SHAM control: G1 to S phase transition 1: 1.3 fold
- Fold change relative to SHAM control: Growth associated protein 43: 0.8 fold
- Fold change relative to SHAM control: H2A histone family, member Y: 1.2 fold
- Fold change relative to SHAM control: Heparan sulfate proteoglycan 2 (perlecan): 1.6 fold
- Fold change relative to SHAM control: Histone H2A.F/Z variant: 1.4 fold
